In patent US20020090341A1, “Method” (NYCOMED IMAGING AS, priority 1997, published 2002):

Tested on: normal and reperfused infarcted myocardium
Assay: inversion recovery echo planar imaging T1 measurement after coronary occlusion 60 min and reperfusion 120 min
Description: Sprague-Dawley rats (female, 270-320 g, n=24) were subjected to occlusion of the anterior branch of the left main coronary artery for 60 minutes, followed by reperfusion for 120 minutes before injecting the test agent. A catheter was placed in the tail vein for administration of contrast media. Animals were connected to an ECG patient monitor and placed in the magnet such that the heart of each rat was at or near ioscenter. Magnetic field was optimized for a central slab of 6 mm thickness, within which the 2 mm section to be imaged was located. Inversion and slice select pulses were calibrated. Inversion recovery echo planar imaging was then used to measure baseline T1 values for myocardium and left ventricle chamber blood.
MnDPDP was then administered at doses of 25, 50 and 100 μmole/kg by intravenous injection of 2.5, 5 and 10 ml/kg, respectively, of the test solution which contained a 10 mM solution of MnDPDP. These injections were followed by a flush of physiologic saline solution (0.9%) such that the combined volumes of test agent and saline flush was 11 ml/kg. All injected solutions were warmed before being administered and were injected slowly over 1.5 mins. T1 values were remeasured at 5 minute intervals during the first 60 minutes after injection. Occasional animals were imaged at 90 minutes for T1 determination (EPI) and for visual inspection of contrast on STIR (short TI inversion recovery) prepared spin echo images.
After imaging was completed, animals were sacrificed by an overdose of pentobarbital and the heart was excised, sectioned and stained in triphenyltetrazolium chloride solution to define the infarcted region.

[1] = 25 μmol/kg, 5 min after injection
[2] = 25 μmol/kg, 10 min after injection
[3] = 25 μmol/kg, 15 min after injection
[4] = 25 μmol/kg, 20 min after injection
[5] = 25 μmol/kg, 25 min after injection
[6] = 25 μmol/kg, 30 min after injection
[7] = 25 μmol/kg, 35 min after injection
[8] = 25 μmol/kg, 40 min after injection
[9] = 25 μmol/kg, 45 min after injection
[10] = 25 μmol/kg, 50 min after injection
[11] = 25 μmol/kg, 55 min after injection
[12] = 25 μmol/kg, 60 min after injection
[13] = 50 μmol/kg, 5 min after injection
[14] = 50 μmol/kg, 10 min after injection
[15] = 50 μmol/kg, 15 min after injection
[16] = 50 μmol/kg, 20 min after injection
[17] = 50 μmol/kg, 25 min after injection
[18] = 50 μmol/kg, 30 min after injection
[19] = 50 μmol/kg, 35 min after injection
[20] = 50 μmol/kg, 40 min after injection
[21] = 50 μmol/kg, 45 min after injection
[22] = 50 μmol/kg, 50 min after injection
[23] = 50 μmol/kg, 55 min after injection
[24] = 50 μmol/kg, 60 min after injection
[25] = 100 μmol/kg, 5 min after injection
[26] = 100 μmol/kg, 10 min after injection
[27] = 100 μmol/kg, 15 min after injection
[28] = 100 μmol/kg, 20 min after injection
[29] = 100 μmol/kg, 25 min after injection
[30] = 100 μmol/kg, 30 min after injection
[31] = 100 μmol/kg, 35 min after injection
[32] = 100 μmol/kg, 40 min after injection
[33] = 100 μmol/kg, 45 min after injection
[34] = 100 μmol/kg, 50 min after injection
[35] = 100 μmol/kg, 55 min after injection
[36] = 100 μmol/kg, 60 min after injection

Cc1ncc(COP(=O)(O)O)c(CN(CCN(CC(=O)[O-])Cc2c(COP(=O)(O)O)cnc(C)c2O)CC(=O)[O-])c1O.[Mn+2] [MnDPDP, manganese (II) chelate of N,N′-bis-(pyridoxal-5-phosphate)-ethylenediamine-N,N′-diacetic acid]
T1 Blood [1]: 1.04 ± 0.02 s
T1 Infarct [1]: 0.76 ± 0.02 s
T1 normal [1]: 0.77 ± 0.01 s
T1 Blood [2]: 1.11 ± 0.02 s
T1 Infarct [2]: 0.82 ± 0.02 s
T1 normal [2]: 0.76 ± 0.01 s
T1 Blood [3]: 1.14 ± 0.02 s
T1 Infarct [3]: 0.86 ± 0.03 s
T1 normal [3]: 0.75 ± 0.01 s
T1 Blood [4]: 1.16 ± 0.02 s
T1 Infarct [4]: 0.90 ± 0.03 s
T1 normal [4]: 0.73 ± 0.01 s
T1 Blood [5]: 1.18 ± 0.02 s
T1 Infarct [5]: 0.92 ± 0.03 s
T1 normal [5]: 0.72 ± 0.01 s
T1 Blood [6]: 1.18 ± 0.02 s
T1 Infarct [6]: 0.93 ± 0.03 s
T1 normal [6]: 0.70 ± 0.01 s
T1 Blood [7]: 1.19 ± 0.02 s
T1 Infarct [7]: 0.95 ± 0.03 s
T1 normal [7]: 0.70 ± 0.01 s
T1 Blood [8]: 1.20 ± 0.02 s
T1 Infarct [8]: 0.98 ± 0.03 s
T1 normal [8]: 0.69 ± 0.01 s
T1 Blood [9]: 1.21 ± 0.02 s
T1 Infarct [9]: 0.99 ± 0.03 s
T1 normal [9]: 0.68 ± 0.01 s
T1 Blood [10]: 1.22 ± 0.02 s
T1 Infarct [10]: 1.00 ± 0.03 s
T1 normal [10]: 0.67 ± 0.01 s
T1 Blood [11]: 1.22 ± 0.02 s
T1 Infarct [11]: 1.01 ± 0.03 s
T1 normal [11]: 0.67 ± 0.01 s
T1 Blood [12]: 1.23 ± 0.02 s
T1 Infarct [12]: 1.02 ± 0.03 s
T1 normal [12]: 0.65 ± 0.01 s
T1 Blood [13]: 0.84 ± 0.02 s
T1 Infarct [13]: 0.59 ± 0.01 s
T1 normal [13]: 0.69 ± 0.01 s
T1 Blood [14]: 0.93 ± 0.03 s
T1 Infarct [14]: 0.65 ± 0.01 s
T1 normal [14]: 0.68 ± 0.01 s
T1 Blood [15]: 0.97 ± 0.02 s
T1 Infarct [15]: 0.69 ± 0.01 s
T1 normal [15]: 0.67 ± 0.01 s
T1 Blood [16]: 1.00 ± 0.02 s
T1 Infarct [16]: 0.73 ± 0.01 s
T1 normal [16]: 0.67 ± 0.01 s
T1 Blood [17]: 1.02 ± 0.03 s
T1 Infarct [17]: 0.76 ± 0.02 s
T1 normal [17]: 0.64 ± 0.01 s
T1 Blood [18]: 1.04 ± 0.03 s
T1 Infarct [18]: 0.80 ± 0.01 s
T1 normal [18]: 0.63 ± 0.01 s
T1 Blood [19]: 1.05 ± 0.03 s
T1 Infarct [19]: 0.82 ± 0.02 s
T1 normal [19]: 0.62 ± 0.01 s
T1 Blood [20]: 1.06 ± 0.03 s
T1 Infarct [20]: 0.85 ± 0.03 s
T1 normal [20]: 0.60 ± 0.01 s
T1 Blood [21]: 1.08 ± 0.03 s
T1 Infarct [21]: 0.87 ± 0.02 s
T1 normal [21]: 0.60 ± 0.01 s
T1 Blood [22]: 1.08 ± 0.03 s
T1 Infarct [22]: 0.88 ± 0.02 s
T1 normal [22]: 0.59 ± 0.01 s
T1 Blood [23]: 1.08 ± 0.03 s
T1 Infarct [23]: 0.89 ± 0.03 s
T1 normal [23]: 0.58 ± 0.01 s
T1 Blood [24]: 1.10 ± 0.03 s
T1 Infarct [24]: 0.91 ± 0.03 s
T1 normal [24]: 0.58 ± 0.01 s
T1 Blood [25]: 0.63 ± 0.03 s
T1 Infarct [25]: 0.46 ± 0.02 s
T1 normal [25]: 0.59 ± 0.01 s
T1 Blood [26]: 0.74 ± 0.03 s
T1 Infarct [26]: 0.47 ± 0.02 s
T1 normal [26]: 0.59 ± 0.01 s
T1 Blood [27]: 0.80 ± 0.02 s
T1 Infarct [27]: 0.51 ± 0.02 s
T1 normal [27]: 0.58 ± 0.01 s
T1 Blood [28]: 0.83 ± 0.02 s
T1 Infarct [28]: 0.55 ± 0.03 s
T1 normal [28]: 0.57 ± 0.01 s
T1 Blood [29]: 0.87 ± 0.02 s
T1 Infarct [29]: 0.58 ± 0.03 s
T1 normal [29]: 0.57 ± 0.01 s
T1 Blood [30]: 0.89 ± 0.02 s
T1 Infarct [30]: 0.60 ± 0.03 s
T1 normal [30]: 0.55 ± 0.01 s
T1 Blood [31]: 0.91 ± 0.03 s
T1 Infarct [31]: 0.61 ± 0.03 s
T1 normal [31]: 0.54 ± 0.01 s
T1 Blood [32]: 0.92 ± 0.03 s
T1 Infarct [32]: 0.63 ± 0.03 s
T1 normal [32]: 0.54 ± 0.01 s
T1 Blood [33]: 0.93 ± 0.03 s
T1 Infarct [33]: 0.65 ± 0.03 s
T1 normal [33]: 0.53 ± 0.01 s
T1 Blood [34]: 0.94 ± 0.03 s
T1 Infarct [34]: 0.66 ± 0.03 s
T1 normal [34]: 0.53 ± 0.01 s
T1 Blood [35]: 0.97 ± 0.02 s
T1 Infarct [35]: 0.69 ± 0.03 s
T1 normal [35]: 0.52 ± 0.01 s
T1 Blood [36]: 0.97 ± 0.03 s
T1 Infarct [36]: 0.69 ± 0.03 s
T1 normal [36]: 0.52 ± 0.01 s
slow E2 component (blood pool clearance): ~0.01 per min
E1, bi-exponential fit of ΔR1 clearance (dose 25, ROI blood): 0.21 min⁻¹
E2, bi-exponential fit of ΔR1 clearance (dose 25, ROI blood): 0.011 ± 0.001 min⁻¹
E1, bi-exponential fit of ΔR1 clearance (dose 25, ROI infarct): 0.15 min⁻¹
E2, bi-exponential fit of ΔR1 clearance (dose 25, ROI infarct): 0.015 ± 0.001 min⁻¹
intercept, linear fit - increase in normal myocardium (dose 25, ROI normal): 0.187
slope, linear fit - increase in normal myocardium (dose 25, ROI normal): 0.0043 min⁻¹
E1, bi-exponential fit of ΔR1 clearance (dose 50, ROI blood): 0.15 min⁻¹
E2, bi-exponential fit of ΔR1 clearance (dose 50, ROI blood): 0.009 ± 0.001 min⁻¹
E1, bi-exponential fit of ΔR1 clearance (dose 50, ROI infarct): 0.058 min⁻¹
E2, bi-exponential fit of ΔR1 clearance (dose 50, ROI infarct): 0.005 ± 0.003 min⁻¹
intercept, linear fit - increase in normal myocardium (dose 50, ROI normal): 0.294
slope, linear fit - increase in normal myocardium (dose 50, ROI normal): 0.0056 min⁻¹
E1, bi-exponential fit of ΔR1 clearance (dose 100, ROI blood): 0.18 min⁻¹
E2, bi-exponential fit of ΔR1 clearance (dose 100, ROI blood): 0.011 ± 0.001 min⁻¹
E1, bi-exponential fit of ΔR1 clearance (dose 100, ROI infarct): 0.11 min⁻¹
E2, bi-exponential fit of ΔR1 clearance (dose 100, ROI infarct): 0.010 ± 0.003 min⁻¹
intercept, linear fit - increase in normal myocardium (dose 100, ROI normal): 0.523
slope, linear fit - increase in normal myocardium (dose 100, ROI normal): 0.0050 min⁻¹
plasma half life (equivalent to E2 component): ~1.17 h
clearance or accumulation of test agent (over 60 minutes after injection, 25, 50 and 100 μmole/kg): cleared from both blood and infarcted myocardium but accumulated in uninfarcted myocardium
